Values belong to the molecule of their own block, whether it stands above or below them.
Columns and labels:
hGPAT3 = biological target: T1, hGPAT3 (Homo sapiens, UniProt Q53EU6); test: GPAT activity assay (TLC separation of LPA) in lysates of cells overexpressing hGPAT3; format: biochemical; settings: for substrate concentration at half-maximal activity (hGPAT3-dependent LPA formation): hGPAT3 expressed in Sf9 cells, nonpurified lysate, other substrate at 100 μM; for increase in LPA formation conferred by hGPAT3 overexpression after NEM pretreatment: preincubated 15 min with NEM (0.4 mM, 0.4 μM elsewhere in the source)
T1 construct: full-length mouse and human GPAT3 were cloned by PCR amplification from cDNA libraries; made in house; host or cells: Sf9 insect cells (baculovirus, pFASTBAC1), total lysate; some experiments used lysates of HEK293 cells transfected with hGPAT3 in pcDNA3.1
T1 sequence (Q53EU6 1-434): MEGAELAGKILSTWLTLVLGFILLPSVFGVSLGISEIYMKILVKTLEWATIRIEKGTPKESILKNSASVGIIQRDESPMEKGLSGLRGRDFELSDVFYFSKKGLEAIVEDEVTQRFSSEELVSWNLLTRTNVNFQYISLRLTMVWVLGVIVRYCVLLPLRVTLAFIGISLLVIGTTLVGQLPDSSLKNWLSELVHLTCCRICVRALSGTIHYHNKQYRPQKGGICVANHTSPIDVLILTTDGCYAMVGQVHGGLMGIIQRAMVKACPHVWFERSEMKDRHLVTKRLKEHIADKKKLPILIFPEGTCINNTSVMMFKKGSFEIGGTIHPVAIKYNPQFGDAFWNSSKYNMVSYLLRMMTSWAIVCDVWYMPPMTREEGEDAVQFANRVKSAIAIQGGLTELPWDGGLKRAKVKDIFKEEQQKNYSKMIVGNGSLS
Source text: Sf9 cells were infected with recombinant baculovirus at an MOI of 10 for 64 hrs. Cell pellets were harvested in ice-cold phosphate-buffered saline (PBS), lysed by sonication or Parr bomb, and total lysate was used immediately for enzyme assay. For subcellular fractionation, cel.ls were lysed with a rapid nitrogen decompression method (Parr Instrument Company, IL), followed by differential centrifugation at 8,000g (mitochondrial fraction) and 1 00,000g (microsomal fraction). Total protein concentration was assayed using a Bio-Rad protein assay with bovine serum albumin (BSA) as a standard (Bio-Rad, Hercules, Calif.). GPAT activity was determined by measuring the conversion of glycerol 3-phosphate (G3 P) to 1-acyl-sn-glycerol 3-phosphate in the presence of acyl-CoA. Formation of enzymatic products was detected by either the conventional 1-butanol extraction method followed by scintillation counting, or by thin layer chromatography (TLC) separation followed by exposure to a phosphorimager screen. GPAT activity assay by I -butanol extraction was performed as described (Yet et al., supra; Haldar and Vancura (1992) Methods Enzymol. 209:64-72). Briefly, cell lysates containing 100 μg protein were incubated for 20 min at room temperature in 75 mM Tris HCl, pH 7.5, 4 mM MgCl2, 1 mg/ml fatty acid-free BSA, 8 mM NaF, 50 μM lauroyl-CoA, 3 mM glycerol 3-phosphate, and 1 μCi of [^3H]glycerol 3-phosphate (30 Ci/mmol, American Radiolabeled Chemicals, Inc., St. Louis, Mo.) in a total volume of 250 μl. The reaction was stopped by addition of 0.5 ml of water-saturated 1-butanol and 0.5 ml of 1-butanol-saturated water followed by a vigorous vortex for 5 min. After a brief spin, the top phase (butanol) was transferred to a fresh tube and washed again with 0.5 ml of butanol-saturated water. Finally, an aliquot of the butanol phase was mixed with scintillation cocktail to count radioactivity using Accurate Radioisotope Counting (ARC).
To assess the GPAT activity more precisely, a TLC separation procedure was utilized. […] For TLC, enzymatic products were identified using standards detected by exposure to […]. All quantitative data are expressed as mean±S.E. Statistical analyses for differences between two groups were carried out using a Student's t-test.
To further investigate the role of GPAT3 in TAG and/or phospholipid synthesis in mammalian cells, GPAT3 was overexpressed in HEK293 cells and the incorporation of [^14C]oleic acid into TAG or phospholipids was measured. […]

mGPAT3 mRNA = mGPAT3 mRNA (Q-PCR) in white adipose tissue of ob/ob mice treated with PPARγ agonist; format: in vivo, mouse; settings: 15 mg/kg gavage once a day for 21 days
Protocol: To confirm and extend the transcriptional profiling data, TAQMAN® (Applied Biosystems, Foster City, Calif.) real-time quantitative PCR (Q-PCR) analysis was performed using probes specific for mouse and human GPAT3. Briefly, undifferentiated and differentiated 3T3-L1 adipocytes, tissues from normal 8-12 week old male C57B1/6J mice, and tissues from 10-week old male ob/ob and age-matched wild type control mice were obtained as previously described (Lake et al., supra). For PPARγ agonist treatment, 10-week old male ob/ob mice were gavaged once a day with 15 mg/kg rosiglitazone or vehicle control for 21 days. RNA and cDNA were prepared as previously described (Lake et al., supra). Gene profiling data were generated using the MOE430 chip according to the manufacturer's recommendations (Affymetrix, Santa Clara, Calif.). Q-PCR was performed using an ABI PRISM® 7900 sequence detector (Applied Biosystems, Foster City, Calif.) with 18s as an internal control as described (Lake et al., supra). Gene-specific primers and probes were obtained from Applied Biosystems (Cat. Nos. mm00554802_ml and Hs00262010_ml). Relative expression was determined by the […] (Applied Biosystems, Foster City, Calif.).
PPARγ agonists such as rosiglitazone induce expression of the lipogenic program in adipose tissue (Rosen and Spiegelman (2001) J. Biol. Chem. 276:37731-34). […]

human mtGPAT1 = biological target: T2, human mtGPAT1 (Homo sapiens, UniProt Q9HCL2); test: GPAT activity assay (TLC separation of LPA) in lysates of HEK293 cells overexpressing mtGPAT1; format: biochemical; settings: preincubated 15 min with NEM
T2 construct: expressed in transfected cells; host or cells: HEK293 cells, transient transfection (FUGENE 6); total lysate assayed
T2 sequence (Q9HCL2 1-828): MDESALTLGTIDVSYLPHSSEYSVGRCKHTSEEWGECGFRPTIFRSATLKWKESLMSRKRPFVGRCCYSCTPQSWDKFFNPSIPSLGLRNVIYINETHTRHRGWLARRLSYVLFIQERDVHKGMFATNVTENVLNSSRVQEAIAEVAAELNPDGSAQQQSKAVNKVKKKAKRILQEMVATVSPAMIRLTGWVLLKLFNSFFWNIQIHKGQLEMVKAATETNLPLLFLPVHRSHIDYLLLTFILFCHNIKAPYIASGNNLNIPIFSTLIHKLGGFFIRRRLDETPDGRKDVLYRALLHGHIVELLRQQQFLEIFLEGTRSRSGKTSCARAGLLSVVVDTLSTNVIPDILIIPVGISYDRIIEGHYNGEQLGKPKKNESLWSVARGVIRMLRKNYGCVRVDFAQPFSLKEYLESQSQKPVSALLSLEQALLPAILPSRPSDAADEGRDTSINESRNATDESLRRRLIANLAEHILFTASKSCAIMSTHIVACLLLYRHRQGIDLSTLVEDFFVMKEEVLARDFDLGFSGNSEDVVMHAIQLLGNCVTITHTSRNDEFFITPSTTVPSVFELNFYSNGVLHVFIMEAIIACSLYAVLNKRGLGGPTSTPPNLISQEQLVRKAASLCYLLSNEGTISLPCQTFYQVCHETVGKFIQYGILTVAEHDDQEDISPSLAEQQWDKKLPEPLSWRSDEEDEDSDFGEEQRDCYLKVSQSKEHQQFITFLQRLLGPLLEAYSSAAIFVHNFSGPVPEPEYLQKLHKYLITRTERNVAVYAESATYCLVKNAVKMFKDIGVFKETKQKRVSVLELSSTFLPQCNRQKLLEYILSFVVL

substrate concentration at half-maximal activity (hGPAT3-dependent LPA formation) (hGPAT3): ~80 µM
SMILES: O=P(O)(O)OCC(O)CO (stereo not drawn) [G3P, glycerol 3-phosphate]

substrate concentration at half-maximal activity (hGPAT3-dependent LPA formation) (hGPAT3): ~25 µM
SMILES: CCCCCCCCCCCC(=O)SCCNC(=O)CCNC(=O)[C@H](O)C(C)(C)COP(=O)(O)OP(=O)(O)OC[C@H]1O[C@@H](n2cnc3c(N)ncnc32)[C@H](O)[C@@H]1OP(=O)(O)O [lauroyl-CoA]

SMILES: CN(CCOc1ccc(CC2SC(=O)NC2=O)cc1)c1ccccn1 (stereo not drawn) [rosiglitazone]
induced expression of mGPAT3 mRNA in white adipose tissue over control (mGPAT3 mRNA): 4.5 fold

SMILES: CCN1C(=O)C=CC1=O [NEM, N-ethylmaleimide]
mtGPAT1-dependent LPA formation after NEM pretreatment (human mtGPAT1): not affected
increase in LPA formation conferred by hGPAT3 overexpression after NEM pretreatment (hGPAT3; HEK293 lysates): completely abolished
increase in LPA formation conferred by hGPAT3 overexpression after NEM pretreatment (hGPAT3; Sf-9 lysates): completely abolished
